Reference: article PMC6832649, “Sa12b Peptide from Solitary Wasp Inhibits ASIC Currents in Rat Dorsal Root Ganglion Neurons” (Toxins, 2019)
“Also recorded” adds a separate entry of the source. Where no end group is shown, it is not given here.

Legend:
[1] = pH not stated for this peptide; ref [37]; cited from earlier work
Source text: RFa-related peptides have an NH2 group which is positively charged at pH 5 to 8 [21]. The effects of Sh5b could be due to the positive charge given by its amine group. Other inhibitors of ASICs, such as the PhcrTx1 peptide, which at pH 7.4 has a net charge of +5.03, APETx2 (net charge = +2.00), and PcTx1 (net charge = +3) also have that particularity. Aminoglycosides are also positively-charged ASICs modulators.

ASIC1b = conditions: ref [9]; read-out: EC50, agonist of ASIC1b; cited from earlier work
ASIC1a = conditions: ref [38]; cited from earlier work
ASIC currents = conditions: 10 μM stated to be close to the EC50 of FMRFa; no reference given; cited from earlier work
Description: The peptide was initially tested at 10 μM, this concentration was used because it is close to the EC50 of FMRFa. With application of 10 µM Sa12b in preincubation form (20 s before and 5 s during acid pulse), Sa12b inhibited ASIC currents 92.7 ± 7.3% (p < 0.05 paired Student’s t-test, n = 5) (Figure 2A).

[2] = target: Acid-Sensing Ion Channels (ASIC) of rat dorsal root ganglion neurons
rASIC3 = tested on: rASIC3; parameters: method as in PMID 15044953; conditions: ref [34]; read-out: IC50, homomeric rASIC3; cited from earlier work
hASIC3 = tested on: hASIC3; parameters: method as in PMID 15044953; conditions: ref [34]; cited from earlier work
[3] = tested on: ASIC currents in rat dorsal root ganglion (DRG) neurons; experiment: ASIC currents in DRG neurons, whole-cell voltage clamp; assay type: cell-based, Long-Evans CII rat (P7-P10)
Description: To study the effect of Sa12b and Sh5b on ASIC, DRG neurons were obtained from Long-Evans CII / ZV rats of 7 to 10 days of postnatal age, of either sex. Animals were provided by the laboratory animal facility ‘Claude Bernard’ of the Autonomous University of Puebla. The study was performed in accordance with the recommendations in the Guiding Principles in the Care and Use of Vertebrate Animals in Research and Training of the American Physiological Society, and with the regulations of the NOM-062-ZOO-1999 of the Mexican Ministry of Agriculture, Stockbreeding, Rural Development, Fishing and Food. The protocol was reviewed and approved by the Institutional Committee for Animal Care and Use (IACUC) of the Autonomous University of Puebla (VIEP-BUAP) on 17 July 2017. The ethical approval code is SOEE-UALVIEP-17-1. All efforts were made to minimize animal suffering and to reduce the number of animals used. DRG neurons were isolated and maintained in primary culture according to the methodology described previously. The dissection and cell culture were performed within a level I biosafety laminar flow hood (Nuaire, Plymouth, MN, USA). Rats were anesthetized with sevoflurane and sacrificed by decapitation. Subsequently, the rat was placed in prone position to make a longitudinal incision through the vertebral bodies removing the spinal cord. Dorsal root ganglia were isolated (approximately 12 to 18 per rat) using conventional dissection under a stereoscopic microscope (American Optical, Southbridge, MA, USA). Once extracted, DRG neurons were placed in a disposable sterile centrifuge tube (Corning, Corning, NY, USA), in which they were incubated for 30 min at 37 °C in Leibovitz L15 medium (L15) (Invitrogen, Waltham, MA, USA), added with 1.25 mg/mL of trypsin and 1.25 mg/mL of collagenase (both from Sigma-Aldrich, St. Louis, MO, USA) for an enzymatic dissociation.
After the enzymatic treatment, the ganglia were washed 3 times with 100% L15 medium; after each wash, the cells were subjected to mechanical dissociation using glass three-gauge Pasteur pipettes; between each wash, a cell pellet was formed using a centrifuge at 5000 rpm. After the third wash, once the cell pellet was formed, the supernatant was discarded, and the cell suspension was placed in a 35 mm culture dish (Corning) on 12 × 10 mm glass plates (Corning) previously treated with poly-D-lysine (Sigma-Aldrich, St. Louis, MO, USA).
Dissociated neurons were incubated for a period of time ranging from 2 to 8 h in a humidified atmosphere ([…], 5% CO2, at 37 °C) using a water-jacketed CO2 incubator (Nuaire, Plymouth, MN, USA) allowing for settlement and adhesion of isolated cells to the glass plates. The cells were cultured in modified L15 medium, supplemented with 10% fetal bovine serum (Gibco, Waltham, MA, USA), 100 IU penicillin (Lakeside, Hayward, CA USA), fungizone 2.5 μL/mL (Gibco), NaHCO3 15.7 mM (J.T. Baker, Radnor DE, USA) and 15.8 mM HEPES (Sigma-Aldrich, St. Louis, MO, USA).
After an incubation period of 2 to 8 h, the recording of ASIC currents in DRG neurons was performed. Cells were transferred to a recording chamber mounted in a phase-contrast inverted microscope (TMS, Nikon Co. Tokyo, Japan).
The recording chamber was constantly perfused with extracellular solution (Table 3). Recordings were performed in whole-cell voltage-clamp mode using an Axopatch 1D amplifier (Molecular Devices, Union City, CA, USA). Data collection and generation of commands for the perfusion change were carried out by the pClamp 9.2 (Molecular Devices) software in a 16-bit data acquisition system (Digidata 1320, Molecular Devices). […] The signals were digitized at 5 kHz. The series resistance was electronically compensated at 80%. Throughout the recording, access resistance and seal quality were monitored to ensure stable recording conditions.
Proton-gated currents were obtained with a holding potential of −60 mV. […]

[4] = target: Acid-Sensing Ion Channels (ASIC) of rat dorsal root ganglion neurons; remark: listed apart in the source
[5] = Sh5b 100 nM, co-application, mean ± E.S., n = 5
[6] = Sh5b 100 nM, preincubation, mean ± E.S., n = 9
[7] = Sh5b 100 nM, preincubation, single recording, Figure 6A
[8] = Sh5b 1 µM, preincubation, single recording, Figure 6B
[9] = Sh5b 3 µM, co-application, single recording, Figure 5A
[10] = Sh5b 10 µM, co-application, mean ± E.S., n = 9
[11] = Sh5b 10 µM, co-application, single recording, Figure 5B
[12] = Sh5b 10 µM, preincubation, mean ± E.S., n = 12
[13] = Sh5b 10 µM, preincubation, single recording, Figure 6C
[14] = Sh5b 30 µM, co-application, mean ± E.S., n = 6
[15] = Sh5b 30 µM, co-application, single recording, Figure 5C

PcTx1
net charge [1]: +3 | EC50 (ASIC1b): ~100 nM | IC50 (ASIC1a): 1 nM

Phe-Met-Arg-Phe amide [FMRFa, abundant tetrapeptide in invertebrate nervous systems, neurotransmitter and neuromodulator]
EC50 (ASIC currents): ~10000 nM

Sa12b peptide
percent decrease of the ASIC I peak at pH 6.1, Sa12b by preincubation, 30 nM to 10 µM (highest at 1 µM), whole-cell voltage clamp of rat DRG neurons [2]: 98 % I_(peak)

APETx2
IC50 (rASIC3): 37 to 63 nM | IC50 (hASIC3): ~175 nM | net charge [1]: +2.00

DVDHVFLRF-NH2 [Sh5b]
effect on analyzed parameters of ASIC current ([3]; Sh5b 100 nM, co-application, n = 5): no consistent concentration-dependent effects | % ISS change (increase 🡹) [3, 5]: 🡹 85 ± 74% | % Ipeak change (decrease 🡻) [3, 5]: 🡻2 ± 4% | % Ƭdes change (decrease 🡻) [3, 5]: 🡻 1 ± 2% | effect on analyzed parameters ([3]; Sh5b 100 nM, preincubation, n = 9): no effect | % ISS change (increase 🡹) [3, 6]: 🡹 53 ± 38% | % Ipeak change (decrease 🡻) [3, 6]: 🡻0.5 ± 6% | % Ƭdes change (increase 🡹) [3, 6]: 🡹 13 ± 15% | change in Ƭdes [3, 7]: no change | increase of ISS [3, 7]: 3% | increase of Ipeak [3, 7]: 1% | % Ƭdes change (increase 🡹) ([3]; Sh5b 1 µM, preincubation, mean ± E.S., n = 5): 🡹 3 ± 5% | inhibition of ISS [3, 8]: 5% | inhibition of Ipeak [3, 8]: 1% | % Ipeak change (decrease 🡻) ([3]; Sh5b 3 µM, co-application, mean ± E.S., n = 12): 🡻6 ± 3% | increase of ISS [3, 9]: 30% | reduction of Ipeak [3, 9]: 9.6% | overall change of Ipeak ([3]; Sh5b 10 µM, co-application, increase in some cells, decrease in others): non-significant | % ISS change (increase 🡹) [3, 10]: 🡹 1 ± 11% | % Ƭdes change (decrease 🡻) [3, 10]: 🡻 10 ± 5% | % Ipeak change (increase 🡹) ([3]; Sh5b 10 µM, co-application, mean ± E.S., n = 9, non-significant): 🡹17 ± 15% | increase of ISS [3, 11]: 14.6% | increase of Ipeak [3, 11]: 44.6% | effect on studied parameters ([3]; Sh5b 10 µM, preincubation, n = 12): did not produced significant effects | % ISS change (decrease 🡻) [3, 12]: 🡻 8 ± 15% | % Ipeak change (decrease 🡻) [3, 12]: 🡻11 ± 4% | % Ƭdes change (decrease 🡻) [3, 12]: 🡻 5 ± 4% | change in Ƭdes [3, 13]: no change | increase of ISS [3, 13]: 26% | inhibition of Ipeak [3, 13]: 18% | ISS amplitude ([3]; Sh5b 30 µM, co-application, from 79 pA before peptide, single recording, Figure 5C): 159 pA | % Ipeak change (decrease 🡻) [3, 14]: 🡻1 ± 6% | % Ƭdes change (increase 🡹) [3, 14]: 🡹 9 ± 5% | increase of ISS [3, 15]: 102% | inhibition of Ipeak [3, 15]: 3.8% | overall effect on ASIC currents ([3]; Sh5b, both application protocols): did not show consistent results having both excitatory and inhibitory effects on the maximum ASIC currents; also recorded: did not produce consistent, reproducible, effects | concentration dependence of effects on ASIC current ([3]; Sh5b, co-application, 100 nM-30 µM): not dependent on concentration | effect on ISS/Ipeak relationship ([3]; Sh5b, co-application, overall): tendency towards the increase | effect on Ƭdes ([3]; Sh5b, co-application, overall): did not show noticeable differences | effect on ISS component ([3]; Sh5b, overall, preincubation): increased slightly | effect on ISS/Ipeak relationship ([3]; Sh5b, preincubation, overall): also increased | effect on current peak ([3]; Sh5b, preincubation, overall): tendency to inhibit the current peak | effect on Ƭdes and integral of the current ([3]; Sh5b, preincubation, overall): no consistent changes | reversibility of effect on ASIC current ([3]; after 1 min washout): reversed by 1 min peptide washout

DVDHVFLRF-NH2 [Sh5b peptide]
percent decrease of the ASIC I peak at pH 6.1, Sh5b by preincubation, 100 nM to 10 µM (largest at 10 µM; not significant), whole-cell voltage clamp of rat DRG neurons [4]: 11 % I_(peak)
